{"source": "patent US9180164B2", "about": "“Compounds and methods of modulating angiogenesis” (THE CLEVELAND CLINIC FOUNDATION, priority 2011, dated 2015)", "key": {"neovascularization": {"tested_on": "neovascularization", "experiment": "Matrigel plug assay, hemoglobin extracted from Matrigel", "format": "in vivo, mice", "details": "50 mM peptide in Matrigel with VEGF (60 ng/mL), subcutaneous, 7 days", "quoted_text": "Matrigel plug assays were performed in age- and sex-matched C57/B16 background mice. […] After 7 days, the animals were euthanized and dissected. Matrigel plugs were removed and digested using 5 mL Drabkin reagent and neovascularization was assessed using a hemoglobin assay as per the manufacturer's protocol (FIG. 16).\nAngiogenic response was measured based on the amount of hemoglobin extracted from Matrigel."}, "HUVECs": {"tested_on": "HUVECs", "experiment": "Cell adhesion assay with inhibiting peptide", "format": "cell-based, Human", "details": "HUVECs on integrin ligand coated plates", "experimental": "Cells were washed twice with sterile phosphate buffered saline (PBS) and re-suspended in serum-free DMEN. The cell suspensions were added to integrin ligand-coated wells and placed in a humidified incubator for 45 min. The wells were gently washed three times with DMEM and photographs were taken. The numbers of attached and spread cells per field were counted.\nTo examine endothelial cell adhesion to various ECM proteins following inhibition of expression of specific integrin subunits, HUVECs were plated on various integrin ligand coated plates and ability of EC to adhere to the distinct extracellular matrix components were tested after administration of a control peptide (YGRKKRRQRRR G DTANNPL FKEATSTFT-COOH) (SEQ ID NO: 43) or with equal amount of beta-3 integrin cytoplasmic domain inhibitory peptide (YGRKKRRQRRR G DTANNPLYpKEATSTFT-COOH) (SEQ ID NO: 44)."}, "endothelial cells": {"tested_on": "endothelial cells", "experiment": "VEGF-induced endothelial cell migration with inhibiting peptide", "format": "cell-based", "experimental": "To examine the effect of the inhibiting peptide on endothelial cell migration, VEGF-induced migratory activity of endothelial cells was measured after administration of a control peptide (YGRKKRRQRRR G DTANNPL FKEATSTFT-COOH) (SEQ ID NO: 43) or with equal amount of beta-3 integrin cytoplasmic domain inhibitory peptide (YGRKKRRQRRR G DTANNPLYpKEATSTFT-COOH) (SEQ ID NO: 44) to the endothelial cells."}}, "data": [{"sequence": "YGRKKRRQRRR G DTANNPL Yp KEATSTFT-COOH", "values": [{"measurement": "hemoglobin concentration lower in Matrigel plugs compared to control peptide", "setting": "neovascularization", "result": "at least 3.5 fold"}, {"measurement": "effect on cell adhesion compared to a control peptide", "setting": "HUVECs", "result": "no effect on cell adhesion"}, {"measurement": "VEGF-induced endothelial cell migration compared to the control peptide", "setting": "endothelial cells", "result": "prevented endothelial cell migration"}, {"measurement": "capillary formation compared to the control peptide", "setting": "endothelial cells", "result": "inhibited capillary formation"}]}]}
